# Experiments:
# UCHL1 = UCHL1 (Homo sapiens (Human), UniProt P09936); experiment: UCHL1 biochemical inhibition (ubiquitin hydrolase activity, purified enzyme)
# USP30 = USP30 (Homo sapiens (Human), UniProt Q70CQ3); experiment: USP30 biochemical IC50
# [1] = tested on: Ba/F3-EPOR-JAK2-V617F-expressing cells; experiment: Ba/F3 cell proliferation (CellTiter Glo); format: cell-based, murine
# Procedure: Proliferation and Drug Combination Studies. Proliferation and drug combination studies were carried out as previously described (Yang, et al., 2020, British Journal of Cancer, 122:1175-84).
# As toxicities can result from small molecule targeting of both oncogenic mutated JAK2 as well as its non-mutated counterpart, a chemical genetics screen was designed and performed of a DUB-focused small molecule inhibitor library with the goal of leveraging crosstalk between phosphorylation and ubiquitination to identify DUB inhibitors able to selectively degrade mutant JAK2 while sparing wt JAK2. Of relevance, activated FLT3 can be selectively degraded over the wt enzyme by inhibition of the DUB, USP10, (Wernig, et al., 2008, Blood, 111(7):3751-9) and similar to FLT3, JAK2 is ubiquitinated in an activation-dependent manner. In brief, the library of known and novel DUB inhibitors was evaluated for ability to suppress growth of Ba/F3-EPOR-JAK2-V617F-expressing cells selectively over Ba/F3-EPOR cells growing in the presence of interleukin-3.
# A broader range of compounds 1 and 2, including concentrations lower than 1 μM, were also tested on growth of EPOR-JAK2-V617F-expressing Ba/F3 cells and parental Ba/F3 EpoR+ cells (24 hours treatment on 4000 cells per well) (FIG. 18-FIG. 18B). Cell growth inhibition (FIG. 17A-FIG. 17B, FIG. 18A-FIG. 18B) was tested on Ba/F3-EPOR-JAK2-V617F (-IL-3/WEHI) and parental Ba/F3-EPOR cells (+IL-3/WEHI) plated at 2000 cells per well, at 1, 3 and 10 μM for 24 hours using the Promega CellTiter Glo® assay.
# wt JAK2 = wt JAK2 (Mus musculus (Mouse), UniProt Q62120); experiment: JAK2 protein level by western blotting in Ba/F3-EPOR-JAK2 wt cells; format: cell-based
# Procedure: (§1) Immunoblotting and Immunoprecipitation. Protein lysate preparation, immunoblotting, and immunoprecipitation were carried out as previously described (Lamberto, et al., 2017 Cell Chem Biol., 224(12):1490-500 e11). Briefly, 0.7×10^6 cells were treated with compounds 1 and 2 at 0, 5, 10, and 20 μM for 16 or 24 hours, cells were collected, and lysate was prepared in radioimmunoprecipitation assay (RIPA) buffer, JAK family and downstream signaling protein levels were detected by western blotting with the indicated antibodies. For immunoprecipitation, 1 mg protein for each sample was prepared and 1 μg antibody was used, immunoglobulin G (IgG) was added in same amount as nontargeting control.
# HEL cells = experiment: HEL cell growth inhibition by fresh or aged drug stocks (stability); format: cell-based, human; settings: stocks stored two to three years at −20° Celsius; 2.5, 5, 10, 20 μM, 24 hours
# Procedure: Fresh or aged stocks of compounds 1 and 2 were tested for the ability to inhibit HEL cell growth at 2.5, 5, 10, and 20 μM of each drug after 24 hours (FIG. 19A-FIG. 19B).
# The CellTiter Glo® assay was performed using HEL cells seeded at 1000 cells/well of a 96-well plate. The “fresh” drug stocks were obtained frozen (stored at −20° Celsius) within days of executing the proliferation experiment for which results are shown. The “aged” drug stocks were obtained from freeze-thawed stocks serially diluted and stored at −20° Celsius in the laboratory. The “aged” stocks were stored between at least two years to three years at −20° Celsius with little to no freeze-thaw cycles prior to execution of the proliferation experiment for which results are shown. “Aged” stocks may be stored for several years (e.g., at least one year, at least two years, at least three years, at least four years or more) at −20° Celsius prior to use.
# JAK2-V617F = JAK2-V617F (Homo sapiens (Human), UniProt O60674, V617F); experiment: JAK2-V617F protein loss in human AML cell lines by western blotting; format: cell-based; settings: HEL cells, co-treatment with cycloheximide
# Procedure: as §1
# SOCS1 = SOCS1 (Homo sapiens (Human), UniProt O15524); experiment: SOCS1 expression in HEL cells by western blotting; format: cell-based; settings: 5 μM
# Procedure: With JOSD1 as the prime candidate, JOSD1 binding and inhibition was evaluated by the compounds. First, targeted engagement was confirmed by showing competition with DUB ABP in HEL-FLAG-HA-JOSD1 cells following treatment with the two agents (FIG. 4D). The structures for negative control compounds 66 and 67 are shown below. In addition, the effects of small molecule inhibition of JOSD1 was investigated on MCL-1, an established substrate of JOSD1 (Wu, et al., 2020 Cell Death Differ., 27(1):55-70). […] Other exemplary compounds that inhibit DUBs are listed below in Table 3 (See Supra, ¶ [0063] for structures)
# [2] = tested on: JAK2-V617F-positive primary AML patient samples; experiment: AML liquid culture proliferation, primary patient samples; format: cell-based, human
# Source text: AML liquid culture proliferation and colony assay studies. Frozen vials of bone marrow from AML patients identified as harboring JAK2-V617F were previously Ficoll®-purified to obtain mononuclear cells and thawed prior to use in studies.
# normal bone marrow cells = experiment: Normal bone marrow colony assay; format: cell-based, human
# Procedure: Normal human bone marrow was also analyzed in a colony assay: 24-well plates seeded with 200 cells/well in MethoCult™ H4434 Classic (methylcellulose-based medium with recombinant cytokines for human cells) ([…] Technologies™ INC., Vancouver, British Columbia, Canada). The plates contained targeted JOSD1 inhibitors at the indicated concentrations. Plates were incubated at 37° C. in 5% CO2 for >1 week, and then myeloid and erythroid colonies (early progenitors with erythroid and myeloid components: colony-forming unit for granulocytes and macrophages (CFU-GM), CFU-erythroid (E), BFU-E, and CFU-granulocyte, erythroid, macrophage, megakaryocyte (GEMM) were counted on an inverted microscope.
# Chain of UCHL1 (P09936 whole entry, species assumed): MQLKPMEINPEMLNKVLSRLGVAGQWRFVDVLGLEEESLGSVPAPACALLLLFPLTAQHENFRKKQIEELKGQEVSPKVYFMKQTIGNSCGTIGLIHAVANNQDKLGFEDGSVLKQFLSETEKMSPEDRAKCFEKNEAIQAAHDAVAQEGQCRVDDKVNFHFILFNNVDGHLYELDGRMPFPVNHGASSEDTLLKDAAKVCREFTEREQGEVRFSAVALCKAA
# Chain of USP30 (Q70CQ3 whole entry, species assumed): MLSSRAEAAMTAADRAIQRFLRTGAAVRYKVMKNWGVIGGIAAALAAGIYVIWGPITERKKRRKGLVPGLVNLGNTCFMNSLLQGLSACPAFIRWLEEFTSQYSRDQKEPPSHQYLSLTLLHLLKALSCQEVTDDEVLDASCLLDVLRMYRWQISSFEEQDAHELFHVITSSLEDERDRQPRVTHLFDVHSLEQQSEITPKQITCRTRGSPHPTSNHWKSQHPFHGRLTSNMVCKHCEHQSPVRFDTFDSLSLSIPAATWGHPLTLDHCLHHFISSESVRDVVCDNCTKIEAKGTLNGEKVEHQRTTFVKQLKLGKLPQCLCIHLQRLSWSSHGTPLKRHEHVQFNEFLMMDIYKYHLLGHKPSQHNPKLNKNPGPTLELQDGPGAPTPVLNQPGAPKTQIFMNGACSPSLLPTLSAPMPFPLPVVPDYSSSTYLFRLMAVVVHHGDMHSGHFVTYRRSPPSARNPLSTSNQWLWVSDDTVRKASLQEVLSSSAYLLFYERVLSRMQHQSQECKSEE
compound,measurement,setting,value
"Cc1noc(C)c1-c1cccc2nc(NC(=O)[C@H]3CCN(C#N)C3)sc12 [Compound 2, (S)-1-cyano-N-(7-(3,5-dimethylisoxazol-4-yl)benzo[d]thiazol-2-yl)pyrrolidine-3-carboxamide]",UCHL1 biochemical IC50 (range in words),UCHL1,several hundred
same,USP30 biochemical IC50 (range in words),USP30,several hundred
same,killing of Ba/F3-EPOR-JAK2-V617F cells compared to wt JAK2-expressing parental Ba/F3 cells,[1],selective killing
same,cell growth inhibition,"[1]; 1, 3 and 10 μM, 24 hours, independent experiments",inhibit growth
same,JAK2 levels in wt cells,wt JAK2,little to no impact on JAK2 levels
same,stability: growth inhibition by aged stocks versus fresh stocks,HEL cells,comparable cell growth inhibition
same,JAK2-V617F protein half-life,JAK2-V617F,shorten JAK2-V617F protein half-life
same,SOCS1 expression,SOCS1,decrease
same,potency against JAK2-V617F-positive cells versus normal bone marrow cells,"[2]; compound 2: 24 h treatment, ruxolitinib: FIG. 16C",higher potency exhibited against JAK2-V617F-positive cells than normal bone marrow cells
same,primary cell viability,[2]; starting at concentrations around 1 μM,concentration-dependent decrease in primary cell viability
same,normal bone marrow colony formation,normal bone marrow cells; 5 μM or higher,significantly impaired
same,normal bone marrow colony formation,normal bone marrow cells; concentrations up to 2.5 μM,colonies were able to form

# Source: US20240335427A1, “SMALL MOLECULE INHIBITION OF DEUBIQUITINATING ENZYME JOSEPHIN DOMAIN CONTAINING 1 (JOSD1) AS A TARGETED THERAPY FOR LEUKEMIAS WITH MUTANT JANUS KINASE 2 (JAK2)” (DANA-FARBER CANCER INSTITUTE, INC., priority 2021, published 2024)
